# Values of other authors in patent US20260183325A1, “SUSTAINED OR IMMEDIATE RELEASE ENERGY, MENTAL FOCUS, AND PHYSICAL RECOVERY NUTRITIONAL SUPPLEMENT BLEND, DIETARY SUPPLEMENT, FUNCTIONAL FOOD AND FUNCTIONAL BEVERAGE” (Matchstick Brands, LLC, priority 2023, published 2026).
# Conditions: during working memory processes (Koppelstatter et al. 2008)
structure (smiles),measurement,value
Cn1c(=O)c2c(ncn2C)n(C)c1=O [caffeine],fMRI signal changes in a network of brain areas associated with executive and attentional functions,increases
